Data as given in publication PMC5201331, “Subchronic Toxicities of HZ1006, a Hydroxamate-Based Histone Deacetylase Inhibitor, in Beagle Dogs and Sprague-Dawley Rats” (International Journal of Environmental Research and Public …, 2016).

Columns and labels:
[1] = Toxicokinetics in SD rats; type: in vivo, Sprague-Dawley (SD) rats; conditions: for AUC(0-inf) / Cmax / Tmax / half-life: both sexes, Sprague-Dawley, rat, plasma, po, SD rats; for accumulation coefficient R: rats, after 28 days compared with d1
Method: The rats that were judged suitable for the subchronic toxicity study were randomly divided into four groups (10 rats/sex/group). The rats received the test sample by gavage once daily for 28 days. HZ1006 was administered to the rats at doses of 120, 60, 20 and 0 (control) mg/kg, and the dosage volume was 5 mL/kg. Half of the 80 rats (half male and half female) were selected randomly according to body weight and dissected at d28. The remaining rats were dissected at […]. The dogs' blood samples were obtained on the 1st day, the 14th day and the last day (d28) of dosage for plasma HZ1006 content analyses at 0 (1st day only), 1/6, 0.5, 1, 2, 4, 8, 12 and 24 h after dosing, and the blood samples of the rats were acquired on the 1st day and 28th day at the same time as those of the dogs, which were handled and analyzed according to the procedure reported by Zhang et al..

Beagle dogs = assay: Subchronic toxicity test in Beagle dogs: histopathology; type: in vivo; conditions: after 28 days
Method: HZ1006 was administered orally to dogs (four/sex/group) at doses of 80, 40, 20, 5 and 0 (control) mg/kg/day, and the dosage volume was 2 mL/kg. The dogs received test doses with the exact amounts on a weekly basis based on current body weights. […] The other dogs in the above groups were dissected on the planned days. For the other groups, half of the dogs were anatomized on d28 and the remaining half on d42.
After euthanasia, the following organs or tissues were isolated from the dogs and rats: skin, abnormal lesions, spleen, mammary glands, jejunum, pancreas, ileum, duodenum, stomach, colon, cecum, lymph nodes, mesenteric salivary glands, liver, submandibular lymph nodes, thymus, sternum, lungs, heart, esophagus, trachea, tongue, thyroid with parathyroid gland, sciatic nerve, aorta, femurs, skeletal muscle, pituitary gland, brain, kidneys, eyes, urinary bladder, adrenal glands, uterus, ovaries, testes, epididymis and prostate. The weights of the animal organs, such as the liver, spleen, heart, thymus, brain, lungs, adrenal glands, kidneys, uterus, ovaries, epididymis and testes, were tested using an electronic balance. The organs or tissues were fixed using 10% neutral buffered formalin and were then gradient dehydrated, embedded, sectioned, and stained with routine hematoxylin-eosin prior to histopathological observations.

SD rats = assay: Subchronic toxicity test in SD rats: hematology; type: in vivo, Sprague-Dawley (SD) rats; conditions: for APTT / FIB / Lym / Neu / WBC: female rats; for RET: male rats
Method: The rats that were judged suitable for the subchronic toxicity study were randomly divided into four groups (10 rats/sex/group). The rats received the test sample by gavage once daily for 28 days. HZ1006 was administered to the rats at doses of 120, 60, 20 and 0 (control) mg/kg, and the dosage volume was 5 mL/kg. Half of the 80 rats (half male and half female) were selected randomly according to body weight and dissected at d28. The remaining rats were dissected at […]. The following indexes were examined for the dogs used in the study, twice during the pre-dosage period and on d14, d28 and […]. The following parameters were evaluated on d28 and […] for the rats in the study: Blood samples of the animals were collected in tubes containing ethylenediamine tetraacetic acid (EDTA) and tested using an ADVIA2120 Hematology Autoanalyzer (Bayer, Leverkusen, Germany). The following indexes were examined: hemoglobin concentration (Hb), red blood cell count (RBC),mean corpuscular volume (MCV), hematocrit (HCT), mean corpuscular hemoglobin concentration (MCHC), mean corpuscular hemoglobin (MCH), white blood cell count (WBC), platelet count (Plt), WBC differential counts [neutrophilcyte (Neu), eosinophilic granulocyte (Eos), basophilic leukocyte (Bas), lymphocyte (Lym), and monocyte (Mon)] and reticulocytes (Ret). The serum coagulation times of the blood samples (1.8-mL samples were mixed with 0.2 mL sodium citrate), including prothrombin time (PT), fibrinogen (FIB), activated partial thromboplastin time (APTT), and thrombin time (TT), were tested using an MC10 plus Blood Coagulation Analyzer from Shanghai San Jose Medical Products Co., Ltd. (Shanghai, China).

[2] = 20 mg/kg/day, 20 mg/kg/day oral, 28 days
[3] = 20 mg/kg/day, 20 mg/kg/day oral, single
[4] = 60 mg/kg/day, 60 mg/kg/day oral, 28 days
[5] = 60 mg/kg/day, 60 mg/kg/day oral, single
[6] = 120 mg/kg/day, 120 mg/kg/day oral, 28 days
[7] = 120 mg/kg/day, 120 mg/kg/day oral, single
[8] = 20 mg/kg oral daily, d42 (recovery)
[9] = 60 mg/kg oral daily, d42 (recovery)
[10] = 120 mg/kg oral daily, d42 (recovery)

CCCCCCCNc1cc(/C=C/C(=O)NO)ccc1OCCN(CC)CC [HZ1006]
AUC(0-inf) [1, 2]: 32.7 ± 14.9 ng·h/mL
Cmax [1, 2]: 12.9 ± 9.5 ng/mL
Tmax [1, 2]: 20.4 ± 10.8 min
half-life [1, 2]: 439 ± 176 min
AUC(0-inf) [1, 3]: 8 ± 9.1 ng·h/mL
Cmax [1, 3]: 7.5 ± 7.2 ng/mL
Tmax [1, 3]: 51.6 ± 92.4 min
half-life [1, 3]: 36 ± 22.2 min
AUC(0-inf) [1, 4]: 114 ± 30.9 ng·h/mL
Cmax [1, 4]: 19.7 ± 3.3 ng/mL
Tmax [1, 4]: 16.8 ± 10.2 min
half-life [1, 4]: 454 ± 139 min
AUC(0-inf) [1, 5]: 39.1 ± 15 ng·h/mL
Cmax [1, 5]: 13.3 ± 5.5 ng/mL
Tmax [1, 5]: 30 min
half-life [1, 5]: 410 ± 161 min
AUC(0-inf) [1, 6]: 447 ± 282 ng·h/mL
Cmax [1, 6]: 57.5 ± 26.1 ng/mL
Tmax [1, 6]: 115 ± 184 min
half-life [1, 6]: 422 ± 114 min
AUC(0-inf) [1, 7]: 69.9 ± 22.9 ng·h/mL
Cmax [1, 7]: 20.4 ± 3.8 ng/mL
Tmax [1, 7]: 27 ± 7.8 min
half-life [1, 7]: 391 ± 97.2 min
accumulation coefficient R ([1]; 20 mg/kg/day oral): 16.8 ± 21.6
accumulation coefficient R ([1]; 60 mg/kg/day oral): 3.2 ± 1.2
accumulation coefficient R ([1]; 120 mg/kg/day oral): 6.3 ± 2.8
Bone marrow of sternum: decrease in hematopoietic cell numbers (incidence/number examined) (Beagle dogs; 5 mg/kg/day oral): 0/4
Epididymis: lack of mature sperm and secretions in the epididymal lumen as well as decrease of epididymal lumen size (incidence/number examined) (Beagle dogs; 5 mg/kg/day oral): 0/2
Lung: large confluent bronchopneumonia (incidence/number examined) (Beagle dogs; 5 mg/kg/day oral): 0/4
Prostate: reduction in numbers and size, thinner epithelium, narrowing of the glandular cavity of prostatic acini (incidence/number examined) (Beagle dogs; 5 mg/kg/day oral): 0/2
Testis: Reduction in numbers and types of spermatogenic cells (incidence/number examined) (Beagle dogs; 5 mg/kg/day oral): 0/2
Epididymis: lack of mature sperm and secretions in the epididymal lumen as well as decrease of epididymal lumen size (incidence/number examined) (Beagle dogs; 20 mg/kg/day oral): 0/2
Lung: large confluent bronchopneumonia (incidence/number examined) (Beagle dogs; 20 mg/kg/day oral): 0/4
Prostate: reduction in numbers and size, thinner epithelium, narrowing of the glandular cavity of prostatic acini (incidence/number examined) (Beagle dogs; 20 mg/kg/day oral): 0/2
Testis: Reduction in numbers and types of spermatogenic cells (incidence/number examined) (Beagle dogs; 20 mg/kg/day oral): 0/2
Bone marrow of sternum: decrease in hematopoietic cell numbers (incidence/number examined) (Beagle dogs; 40 mg/kg/day oral): 2/4
Epididymis: lack of mature sperm and secretions in the epididymal lumen as well as decrease of epididymal lumen size (incidence/number examined) (Beagle dogs; 40 mg/kg/day oral): 2/2
Lung: large confluent bronchopneumonia (incidence/number examined) (Beagle dogs; 40 mg/kg/day oral): 2/4
Prostate: reduction in numbers and size, thinner epithelium, narrowing of the glandular cavity of prostatic acini (incidence/number examined) (Beagle dogs; 40 mg/kg/day oral): 2/2
Testis: Reduction in numbers and types of spermatogenic cells (incidence/number examined) (Beagle dogs; 40 mg/kg/day oral): 2/2
Bone marrow of sternum: decrease in hematopoietic cell numbers (incidence/number examined) (Beagle dogs; 80 mg/kg/day oral): 3/4
Epididymis: lack of mature sperm and secretions in the epididymal lumen as well as decrease of epididymal lumen size (incidence/number examined) (Beagle dogs; 80 mg/kg/day oral): 2/2
Lung: large confluent bronchopneumonia (incidence/number examined) (Beagle dogs; 80 mg/kg/day oral): 2/4
Prostate: reduction in numbers and size, thinner epithelium, narrowing of the glandular cavity of prostatic acini (incidence/number examined) (Beagle dogs; 80 mg/kg/day oral): 2/2
Testis: Reduction in numbers and types of spermatogenic cells (incidence/number examined) (Beagle dogs; 80 mg/kg/day oral): 2/2
APTT (SD rats; 20 mg/kg oral daily, d28): 24.3 ± 3.5 s
FIB (SD rats; 20 mg/kg oral daily, d28): 1.87 ± 0.09 g/L
Lym (SD rats; 20 mg/kg oral daily, d28): 88.38 ± 1.68%
Neu (SD rats; 20 mg/kg oral daily, d28): 8.70 ± 1.72%
WBC (SD rats; 20 mg/kg oral daily, d28): 3.17 ± 1.23 ×10^9·L^−1
APTT (SD rats; [8]): 22.2 ± 3.0 s
FIB (SD rats; [8]): 1.62 ± 0.17 g/L
Lym (SD rats; [8]): 85.40 ± 3.85%
Neu (SD rats; [8]): 11.58 ± 4.04%
WBC (SD rats; [8]): 2.68 ± 0.63 ×10^9·L^−1
APTT (SD rats; 60 mg/kg oral daily, d28): 23.0 ± 2.4 s
FIB (SD rats; 60 mg/kg oral daily, d28): 1.89 ± 0.06 g/L
Lym (SD rats; 60 mg/kg oral daily, d28): 84.70 ± 5.45%
Neu (SD rats; 60 mg/kg oral daily, d28): 12.08 ± 4.77%
WBC (SD rats; 60 mg/kg oral daily, d28): 2.82 ± 0.60 ×10^9·L^−1
APTT (SD rats; [9]): 25.2 ± 1.3 s
FIB (SD rats; [9]): 1.62 ± 0.18 g/L
Lym (SD rats; [9]): 85.36 ± 6.93%
Neu (SD rats; [9]): 12.06 ± 6.70%
WBC (SD rats; [9]): 2.53 ± 0.60 ×10^9·L^−1
APTT (SD rats; 120 mg/kg oral daily, d28): 22.6 ± 2.4 s
FIB (SD rats; 120 mg/kg oral daily, d28): 2.01 ± 0.40 g/L
Lym (SD rats; 120 mg/kg oral daily, d28): 77.22 ± 8.78%
Neu (SD rats; 120 mg/kg oral daily, d28): 19.28 ± 8.26%
WBC (SD rats; 120 mg/kg oral daily, d28): 3.95 ± 0.77 ×10^9·L^−1
APTT (SD rats; [10]): 25.2 ± 1.6 s
FIB (SD rats; [10]): 1.85 ± 0.12 g/L
Lym (SD rats; [10]): 85.88 ± 1.85%
Neu (SD rats; [10]): 10.76 ± 1.81%
WBC (SD rats; [10]): 3.00 ± 0.43 ×10^9·L^−1
RET (SD rats; 20 mg/kg oral daily, d28): 1.88 ± 0.32%
RET (SD rats; [8]): 1.92 ± 0.31%
RET (SD rats; 60 mg/kg oral daily, d28): 1.43 ± 0.22%
RET (SD rats; [9]): 1.82 ± 0.43%
RET (SD rats; 120 mg/kg oral daily, d28): 2.04 ± 0.31 %
RET (SD rats; [10]): 2.16 ± 0.22%
